Measured values from article PMC5958115, “A novel small molecule chaperone of rod opsin and its potential therapy for retinal degeneration” (Nature Communications, 2018).
pEC50: −log10 of the molar value. “Also recorded” adds a separate entry of the source. Where two headings read alike, the source gives them in different places.

Key:
Format in all cases: cell-based
mouse P23H-opsin mutant = mouse P23H-opsin mutant (Mus musculus, UniProt P15409, P23H); experiment: β-Gal fragment complementation assay: rescue of P23H opsin transport from ER to plasma membrane, U2OS(PLC-EA/P23H-PK) cells
Source text: U2OS(PLC-EA/P23H-PK) cells. A U2OS stable cell line was generated by DiscoveRx, Inc. (Fremont, CA, USA) for the β-Gal fragment complementation assay used in the small-molecule HTS for rescue of P23H-opsin transport. U2OS cells that continually express P23H-PK and PLC-EA fusion proteins were generated. Briefly, this small subunit of β-Gal (PK fragment) was fused to the C-terminal of the mouse P23H-opsin mutant, while the large EA fragment, a subunit of β-Gal, was fused with PLC, a plasma membrane-anchored peptide. Both constructs were subcloned by DicoveRx, Inc. and transferred into U2OS cells by viral infections. Positive clones were selected under treatment with hygromycin and geneticin.
Briefly, U2OS(PLC-EA /P23H-PK) cells were suspended in assay medium at 3 × 10^5 cells mL^−1. The cell suspension was dispensed into 384-well plates (Greiner Bio-one, Monroe, NC, USA) at 20 µL per well, with a Multidrop dispenser (Thermo Scientific, Waltham, MA, USA). Plates with cells then were centrifuged at 200×g for 15 s before incubation at 37 °C with 5% CO2. Plates were removed 24 h later for treatment with tested compounds. A total of 248 plates containing 79,080 compounds from three small-molecule libraries were paired with an equal number of assay plates with cultured cells. Owing to a limited capacity, these plates were assayed in seven batches. An average of 56.3 nL of 10 mM compound in DMSO was dispensed into each well from column 3 to 22 of paired assay plates using a 50 nL 384-pintool system, such that the final concentration of each compound was 22.52 µM on average. […] Each assay plate was shaken for 5 s before further incubation at 37 °C with 5% CO2. After 24 h, assay plates were removed, and each well was incubated with 25 µL of 1× Gal-Screen assay buffer (1:24 substrate-buffer ratio). Assay plates were incubated in the dark for 60–90 min, and luminescence was read from each assay plate with an Envision microplate reader (PerkinElmer) during a 0.1 s per well integration time. The mean and s.d. of readouts in column 2 of each plate were calculated as Mean0% and SD0%, whereas the average and s.d. of readouts in column 23 were calculated as Mean100% and SD100%. Eq. 1: Activity scores (%) = (RLUcp − Mean0%)/(Mean100% − Mean0%) × 100%, where RLUcp is the relative luminescence unit derived for cells treated with a compound. Eq. 2: Z′-factor = 1–3 × (SD0% + SD100%)/(Mean100% − Mean0%)[32]; Eq. 3: signal-to-background (S/B) ratio = Mean100%/Mean0%. Activities of all tested compounds were registered with their compound ID by GeneData Screener (Genedata, Basel, Switzerland) and Pipeline Pilot software (Accelrys, San Diego, CA, USA). Hits, cherry-picked from a separate stock dose-dependent activity test, were selected with an activity score cutoff at 20%. Activity of each hit was tested again with the β-Gal fragment complementation assay in a 10-dose series with each dose tested in triplicate. The 10 doses tested were 80, 40, 20, 10, 5, 2.5, 1.25, 0.625, 0.313, and 0.156 µM. Dose-dependent curves of each hit compound were fitted with GeneData and Origin software.
Detailed synthetic steps are described in Supplementary Note and Supplementary Fig. 9. […] YC-002-YC-021 were purchased from commercial vendors including Enamine LLC (Monmouth Jct., NJ, USA), Matrix Scientific (Columbia, SC, USA) and Tokyo Chemical Industry Co., Ltd. (Portland, OR, USA). […] Activities of YC compounds were tested with the β-Gal fragment complementation assay, as described in a prior section. All YC compounds were tested at 10 doses, each in triplicate: 80, 40, 20, 10, 5, 2.5, 1.25, 0.625, 0.313, and 0.156 µM.

mouse P23H opsin = molecular target: T1, mouse P23H opsin (Mus musculus, UniProt P15409, P23H); experiment: High-content imaging analysis of P23H opsin immunostaining in NIH3T3-(P23H opsin/GFP) cells; conditions: ratio of P23H rod opsin fluorescence on plasma membrane to whole cell; for EC50: read-out: Immunostaining HCS MEM-Total ratio EC50
T1 construct: expressed in transfected cells
Method: To characterize the effect of active compounds on the localization of P23H-mutant opsin in mammalian cells, an image-based assay was used with cells immunostained for WT or P23H-mutant opsin protein[18]. Briefly, NIH3T3-(P23H opsin/GFP) or NIH3T3-(WT-opsin/GFP) cells were seeded at 5000 cells per well in a 384-well cell-carrier plate (PerkinElmer) and incubated at 37 °C with 5% CO2 for 2 h. Cells were treated with compounds as described for the β-Gal fragment complementation assay and incubated in assay medium for 24 h. The assay medium then was aspirated, and cells were fixed with 4% paraformaldehyde at 20 µL per well for 20 min at RT. Cells were immunostained in one of two ways: cell membranes were either permeabilized with 0.1% Triton X-100 for 15 min or left intact and then were incubated with 10% goat serum (Life Technologies). To detect opsin on the cell plasma membrane only, intact cells were immunostained with 20 µL per well of 20 µg mL^−1 B6-30 anti-rhodopsin antibody that recognizes the N-terminal epitope on the extracellular side of rhodopsin. To detect total opsin, cells were permeabilized with Triton X-100 and immunostained with 50 µg mL^−1 1D4 anti-rhodopsin antibody specific for the C-terminal epitope on the intracellular side of rhodopsin. Opsin immunostaining was visualized by incubating cells with 5 µg mL^−1 Cy3-conjugated goat anti-mouse IgG antibody. Three washes with phosphate-buffered saline (PBS: 10 mM Na2HPO4, 1.8 mM KH2PO4, pH 7.4, 137 mM NaCl, and 2.7 mM KCl) were performed between each step of incubation with antibody. In the last wash with PBS, DAPI was added to each well at 300 nM. Fluorescence images were obtained with the Operetta High Content Imaging System (PerkinElmer) using a ×20 long objective. Five fields were taken of each well for cell images using three channels for fluorescence: GFP (100 ms), Cy3 (300 ms), and DAPI (50 ms). Images were analyzed with Acapella software from the Columbus data storage and analysis system (PerkinElmer)[18]. For cells immunostained with opsin on the non-permeabilized cell membrane only, an average of total fluorescence intensity of Cy3 per cell was used to quantify opsin in each well of the 384-well plate. For cells immunostained with opsin in permeabilized whole cells, an average ratio of Cy3 intensity on the cell plasma membrane (PM) to that of the entire cell (opsin ratio PM-to-total) was calculated for each well of a 384-well plate to quantify opsin transport to the plasma membrane. The plasma membrane was defined within ± 5% of the cell border.

P23H opsin = molecular target: T2, P23H opsin (Mus musculus, UniProt P15409, P23H); experiment: Immunoblot of P23H opsin glycosylation in NIH3T3 cell lysates; design: key to Improved glycosylation: n = no; y = yes; conditions: P23H opsin
T2 construct: expressed in transfected cells
Method: NIH3T3-(P23H opsin/GFP) or NIH3T3-(WT-opsin/GFP) cells were seeded in a 48-well plate (Corning Costar) at 3.2 × 10^5 cells per well and incubated at 37 °C with 5% CO2 for 2 h. One hundred-µL of assay medium containing a compound at 5× its final concentration was added to each well. The plate was gently shaken for 5 s before further incubation at 37 °C with 5% CO2 for 24 h. The assay medium then was aspirated, and cells were lysed with 100 µL per well PBS containing 0.1% Triton X-100 and complete protease inhibitor cocktail (Roche, Basel, Switzerland) followed by sonication for 3 s. Protein concentrations were determined with the Bradford assay. For PNGaseF catalyzed deglycosylation, 3 µL of PNGaseF (1500 U, NEB) was added to the cell lysate and the mixture was incubated at room temperature for 1 h before immunoblotting. For NIH3T3-(P23H opsin/GFP) cells, 15 µg of total protein were loaded per well onto an SDS-polyacrylamide gel; whereas for NIH3T3-(WT-opsin/GFP) cells, 5 µg of total protein was loaded per well. Opsin protein was immunostained with 0.2 μg mL^−1 horseradish peroxidase-conjugated 1D4 anti-rhodopsin antibody. Band intensities were measured with ImageJ software (http://imagej.nih.gov/ij/; National the Institutes of Health, Bethesda, MD, USA) and normalized to a glyceraldehyde 3-phosphate dehydrogenase (GAPDH) loading control. Full scans of immunoblotted membranes are shown in Supplementary Fig. 8.

[1] = modifications linked to C3 of the furan-2(5H)-one ring; 10 doses 0.156-80 µM; read-out: Potency EC50
[2] = 24 h; 5 µM 9-cis-retinal = 100%; experimental maximum
[3] = 24 h; 5 µM 9-cis-retinal = 100%; from curve fitting
[4] = 24 h preincubation; activity standardized to 5 µM 9-cis-retinal as 100%; Hill fit; read-out: β-Gal fragment complementation assay Activity score (%) EC50

| SMILES | activity in rescuing P23H-opsin transport (in words) (mouse P23H-opsin mutant) | Emax (mouse P23H-opsin mutant; U2OS; read-out: Efficacy (%)) | pEC50 (mouse P23H-opsin mutant; [1]) | β-Gal fragment complementation assay Activity score (%) Max (fit) / Efficacy (mouse P23H-opsin mutant; [3]) | pEC50 (mouse P23H-opsin mutant; [4]) | Immunostaining HCS MEM-Total ratio Max (fit) (mouse P23H opsin) | EC50 (mouse P23H opsin) | Improved glycosylation (P23H opsin) | further results |
| --- | --- | --- | --- | --- | --- | --- | --- | --- | --- |
| Cc1sc(C)c(C2C(=O)OC(=O)C2c2c(C)sc(C)c2C)c1C (stereo not drawn) [YC-018] |  |  |  |  |  |  |  |  | pEC50 (mouse P23H-opsin mutant; more than one site modified; read-out: Potency): 3.86 |
| O=C1OCC(c2ccc(Cl)s2)=C1c1ccccc1F [YC-068] | relatively higher efficacies; also recorded: improved potency, efficacy, or solubility | 261% | 5.25 |  |  |  |  |  |  |
| Cc1cc(OCC(=O)Nc2cc(N3CCOCC3)ncn2)cc(C)c1Cl [Compound F6257-1860] |  |  |  | 234% | 4.97 | 0.022 | 1.07 µM | n | β-Gal fragment complementation assay Activity score (%) Max (Exp) (mouse P23H-opsin mutant; [2]): 211% |
| COCCNC(=O)c1sc2c(cnc3ccc(OC)cc32)c1-c1ccccc1 [Compound F3382-5924] |  |  |  | 155% | 4.54 | 0.046 | 2.42 µM | y |  |
| O=C(NCC#CCN1CCCC1)c1cc(-c2ccccc2)on1 [Compound F6244-1415] |  |  |  | 25.2% | 5.06 | 0.063 | 4.2 µM | n | β-Gal fragment complementation assay Activity score (%) Max (Exp) (mouse P23H-opsin mutant; [2]): 24.8% |
| O=C1OCC(c2ccc(Cl)s2)=C1c1ccc(Cl)cc1Cl [YC-055] |  | 11% | 5.27 |  |  |  |  |  |  |
| Cc1c(F)cccc1C1=C(c2ccc(Cl)s2)COC1=O [YC-054] | improved potency, efficacy, or solubility | 227% | 5.45 |  |  |  |  |  |  |
| O=C(Cn1c2c(c(=O)n(C3CCCCC3)c1=O)CCC2)Nc1cccc(F)c1 [Compound F5111-0031] |  |  |  | 165% | 4.27 | 0.025 | 6.76 µM | y | β-Gal fragment complementation assay Activity score (%) Max (Exp) (mouse P23H-opsin mutant; [2]): 60.4% |
| O=C(NCCn1ncc2c(NCc3ccco3)ncnc21)c1cc(-c2ccccc2)on1 [Compound F2902-1134] |  |  |  | 31.5% | 4.67 | 0.031 | 4.15 µM | n | β-Gal fragment complementation assay Activity score (%) Max (Exp) (mouse P23H-opsin mutant; [2]): 23.1% |
| O=C1OCC(c2ccc(Cl)s2)=C1c1ccccn1 [YC-043] | activity was preserved or improved; also recorded: improved potency, efficacy, or solubility |  | 4.72 |  |  |  |  |  | Efficacy (%) (mouse P23H-opsin mutant; modifications at C3; normalized to 5 µM 9-cis-retinal): 214% |
| O=C(C1CC1)N(CCn1cccn1)c1nc2c(Cl)cccc2s1 [Compound F5581-0240] |  |  |  | 230% | 5.23 | 0.010 | 0.64 µM | y | β-Gal fragment complementation assay Activity score (%) Max (Exp) (mouse P23H-opsin mutant; [2]): 244% |
| O=C1OCC(c2ccco2)=C1c1cccs1 [YC-049] | some activity that remained |  |  |  |  |  |  |  | pEC50 (mouse P23H-opsin mutant): 4.04; Emax (mouse P23H-opsin mutant; U2OS, read-out: Efficacy (%)): 112% |

Further lines, with some results ahead:

| activity in rescuing P23H-opsin transport (in words) (mouse P23H-opsin mutant) | Emax (mouse P23H-opsin mutant; U2OS; read-out: Efficacy (%)) | pEC50 (mouse P23H-opsin mutant; [1]) | β-Gal fragment complementation assay Activity score (%) Max (fit) / Efficacy (mouse P23H-opsin mutant; [3]) | pEC50 (mouse P23H-opsin mutant; [4]) | Immunostaining HCS MEM-Total ratio Max (fit) (mouse P23H opsin) | EC50 (mouse P23H opsin) | Improved glycosylation (P23H opsin) | SMILES | further results |
| --- | --- | --- | --- | --- | --- | --- | --- | --- | --- |
| activity was preserved or improved | 188% | 5.01 |  |  |  |  |  | O=C1OCC(c2ccc(Cl)s2)=C1c1ccccc1 [YC-047] |  |
|  | 7.1% |  |  |  |  |  |  | O=C1NCC(c2ccc(Cl)s2)=C1c1cccs1 [YC-060] | pEC50 (mouse P23H-opsin mutant; modifications of the furan-2(5H)-one ring; read-out: Potency): 4.61 |
| lower efficacies | 131% | 5.13 |  |  |  |  |  | O=C1OCC(c2ccc(Cl)s2)=C1c1cccc(F)c1 [YC-050] |  |
|  | 104% | 5.03 |  |  |  |  |  | COc1cccc(C2=C(c3ccc(Cl)s3)COC2=O)c1Cl [YC-056] |  |
| activity was preserved or improved | 169% | 4.96 |  |  |  |  |  | O=C1OCC(c2ccc(Cl)s2)=C1c1ccsc1 [YC-051] |  |
| failed to retain activity |  |  |  |  |  |  |  | O=C1OCC(c2ccc(Cl)s2)=C1c1ccco1 [YC-028] |  |
|  | 10% | 5.15 |  |  |  |  |  | COc1ccc(C2=C(c3ccc(Cl)s3)COC2=O)cc1 [YC-052] |  |
| little efficacy | 32.9% | 4.62 |  |  |  |  |  | O=C1OCC(c2ccc(Cl)s2)=C1c1ccc(F)cc1 [YC-053] |  |
